Laboratory results: patent US20250305931A1, “METHOD FOR ANALYZING A URINE SAMPLE, AND A REAGENT FOR ANALYZING A URINE SAMPLE” (SYSMEX CORPORATION, priority 2024, published 2025)

How the values were obtained:
[1] = system: purified yeast fungus (C. glabrata); test: Staining of yeast-like fungi in spiked negative urine, flow cytometer UF-5000 SF channel, average fluorescence intensity of the yeast cluster; assay type: cell-based; details: for average value of the fluorescence intensity compared with 2-phenoxyethanol used alone: Example 2, compound mixed with 2-phenoxyethanol; for average value of the fluorescence intensity compared with when other compounds are used: concentrations of Table 2
Description: Each of the following substances was dissolved in purified water to prepare a buffer solution.
When the compound shown in the following table was not dissolved, the compound was used after filtration. […] Furthermore, a first reagent having the same composition as Diluting Liquid of EXAMPLE-1 of U.S. Patent Publication No. 2006/0073601 was prepared. The first reagent is represented by [2-phenoxyethanol(*)] in the following table. In the following table, the compound of the present embodiment is shown in bold.
UF-fluorocell SF for UF-5000 (Sysmex Corporation) was used. Such reagents include polymethine-based dyes and stain lipid bilayer membranes and porous protein aggregates of cells, and the like.
A purified yeast fungus (C. glabrata) was added to negative urine to a concentration of about 1800 cells/μL. In order to confirm the effect on red blood cells, human blood was added to negative urine so that the concentration of red blood cells was about 400 cells/μL. As the negative urine, a commercially available Normal Human Urine (Golden West Diagnostics, LLC) was filtered through a 0.22-μm membrane filter, and a urine specimen having a negative result in a sediment assay was used.
A measurement sample was prepared by mixing a first reagent and a second reagent with a urine sample, and measurement was performed using an SF channel of a flow cytometer UF-5000 (Sysmex Corporation), and a scattergram was prepared in which a forward scattered light intensity was taken on the vertical axis and a fluorescence intensity was taken on the horizontal axis. In measurement using the SF channel, red blood cells, crystals, a glass cylinder, a cylinder containing contents, and the like are measured. To calculate the average value of the fluorescence intensity of yeast fungi, an arbitrary region Y for each measurement was set, and the average value of the fluorescence intensity of a population of dots appearing in the region was calculated. Note that the value of the fluorescence intensity is a relative value when the minimum value of the horizontal axis in the scattergram is 0 and the maximum value is 255.
SF. Specifically, after mixing 362.5 μL of the first reagent, 125 μL of the urine specimen, and 12.5 μL of the second reagent, the measurement sample was prepared by stirring at about 39° C. for 9 seconds, and then flowed into the flow cell of the detection section. Information on scattered light and fluorescence emitted from particles in the measurement sample that received the laser beam was acquired by the detection unit. A scattergram was generated based on the obtained optical information.

yeast-like fungi = test: Clinical urine specimens, staining of yeast-like fungi on the scattergram; assay type: cell-based; details: Example 4, chlorphenesin 3 g/L, or 1,2-octanediol 2 g/L with 2-phenoxyethanol 6 g/L, control UF-CELLPACK SF
Description: The following specimens were used as the specimen. • (1) Clinical specimen 1: a specimen in which yeast-like fungi and red blood cells are detected in a microscopy • (2) Clinical specimen 2 to 4: a specimen in which yeast-like fungi have been detected by microscopy • (3) Clinical specimen 5 to 10: a specimen in which red blood cells are detected in a microscopy
A urine sample was measured in the same manner as in Example 1, except that the first reagent was prepared by adding 3 g/L chlorphenesin or 6 g/L 2-phenoxyethanol and 2 g/L 1,2-octanediol to the buffer solution described in Example 1. In addition, a urine sample was measured in the same manner as in Example 1 using UF-CELLPACK SF (manufactured by Sysmex) as a first reagent as a control. UF-CELLPACK SF (manufactured by Sysmex) contained 6 g/L of 2-phenoxyethanol. In the following table, the compound of the present embodiment is shown in bold.

[2] = Example 1, 10 g/L in first reagent, final 7.3 g/L, filtered if not dissolved, relative scale 0-255

Structure (SMILES): OCCCCC(O)CO (stereo not drawn) [1,2,6-HEXANETRIOL, reference compound]
- AVERAGE VALUE OF FLUORESCENT SIGNAL INTENSITY [1, 2]: 80.5

Structure (SMILES): CCCCCCCCC(O)CO (stereo not drawn) [1,2-DECANEDIOL, 1,2-decanediol]
- AVERAGE VALUE OF FLUORESCENT SIGNAL INTENSITY ([1]; Example 1, 1 g/L in first reagent, final 0.7 g/L, relative scale 0-255): 252.7

Structure (SMILES): CCCCCCCCCCC(O)CO (stereo not drawn) [1,2-DODECANEDIOL, reference compound]
- AVERAGE VALUE OF FLUORESCENT SIGNAL INTENSITY ([1]; Example 1, 0.5 g/L in first reagent, final 0.4 g/L, relative scale 0-255): 107.6

Structure (SMILES): CCCCC(O)CO (stereo not drawn) [1,2-HEXANEDIOL, reference compound]
- AVERAGE VALUE OF FLUORESCENT SIGNAL INTENSITY [1, 2]: 107.7

Structure (SMILES): CCCCCCC(O)CO (stereo not drawn) [1,2-OCTANEDIOL, 1,2-octanediol]
- AVERAGE VALUE OF FLUORESCENT SIGNAL INTENSITY ([1]; Example 1, 6 g/L in first reagent, final 4.4 g/L, relative scale 0-255): 253.4
- average value of the fluorescence intensity compared with 2-phenoxyethanol used alone [1]: significantly larger
- AVERAGE VALUE OF FLUORESCENT SIGNAL INTENSITY ([1]; Example 3, 3 g/L in first reagent, final 2.2 g/L): 222.1
- AVERAGE VALUE OF FLUORESCENT SIGNAL INTENSITY ([1]; Example 3, 4 g/L in first reagent, final 2.9 g/L): 245.3
- AVERAGE VALUE OF FLUORESCENT SIGNAL INTENSITY ([1]; Example 3, 5 g/L in first reagent, final 3.6 g/L): 251.0
- AVERAGE VALUE OF FLUORESCENT SIGNAL INTENSITY ([1]; Example 3, 6 g/L in first reagent, final 4.4 g/L): 252.1
- staining of yeast-like fungi (yeast-like fungi; clinical specimen 1 (yeast-like fungi and red blood cells)): more strongly stained
- staining of yeast-like fungi (yeast-like fungi; clinical specimens 2 to 4 rich in yeast-like fungi): more strongly stained

Structure (SMILES): OCCCCCCCCO [1,8-OCTANEDIOL, reference compound]
- AVERAGE VALUE OF FLUORESCENT SIGNAL INTENSITY [1, 2]: 120.5

Structure (SMILES): COc1cccc(OCC(C)O)c1 (stereo not drawn) [1-(3-METHOXYPHENOXY)-2-PROPANOL, 1-(3-methoxyphenoxy)-2-propanol]
- AVERAGE VALUE OF FLUORESCENT SIGNAL INTENSITY ([1]; Example 1, 9 g/L in first reagent, final 6.5 g/L, relative scale 0-255): 246.8
- average value of the fluorescence intensity compared with when other compounds are used ([1]; Example 1): significantly larger

Structure (SMILES): CCCCCCCCC(C)O (stereo not drawn) [2-DECANOL, reference compound]
- AVERAGE VALUE OF FLUORESCENT SIGNAL INTENSITY [1, 2]: 106.0

Structure (SMILES): CCCCCC(C)O (stereo not drawn) [2-HEPTANOL, 2-heptanol]
- AVERAGE VALUE OF FLUORESCENT SIGNAL INTENSITY [1, 2]: 250.1
- average value of the fluorescence intensity compared with 2-phenoxyethanol used alone [1]: significantly larger

Structure (SMILES): CCCCCCC(C)O (stereo not drawn) [2-OCTANOL, 2-octanol]
- AVERAGE VALUE OF FLUORESCENT SIGNAL INTENSITY [1, 2]: 240.6

Structure (SMILES): OCCOc1ccccc1 [2-PHENOXYETHANOL, 2-phenoxyethanol, reference compound]
- AVERAGE VALUE OF FLUORESCENT SIGNAL INTENSITY ([1]; Example 1, 7.5 g/L in first reagent, final 5.4 g/L, relative scale 0-255): 196.9

Structure (SMILES): OCCCOc1ccccc1 [3-PHENOXY-1-PROPANOL, 3-phenoxy-1-propanol]
- AVERAGE VALUE OF FLUORESCENT SIGNAL INTENSITY ([1]; Example 1, 7 g/L in first reagent, final 5.1 g/L, relative scale 0-255): 253.6
- average value of the fluorescence intensity compared with when other compounds are used ([1]; Example 1): significantly larger
- average value of the fluorescence intensity compared with 2-phenoxyethanol used alone [1]: significantly larger

Structure (SMILES): COC(=O)c1ccc(O)cc1 [METHYLPARABEN, reference compound]
- AVERAGE VALUE OF FLUORESCENT SIGNAL INTENSITY ([1]; Example 1, 1.9 g/L in first reagent, final 1.4 g/L, relative scale 0-255): 220.5

Structure (SMILES): Oc1ccccc1-c1ccccc1 [ORTHOPHENYLPHENOL, orthophenylphenol]
- AVERAGE VALUE OF FLUORESCENT SIGNAL INTENSITY ([1]; Example 1, 3 g/L in first reagent, final 2.2 g/L, relative scale 0-255): 250.1
- average value of the fluorescence intensity compared with when other compounds are used ([1]; Example 1): significantly larger

Structure (SMILES): OCCOCCOc1ccccc1 [PHENYL DIGLYCOL, reference compound]
- AVERAGE VALUE OF FLUORESCENT SIGNAL INTENSITY [1, 2]: 165.0
